We go through seven compounds from patent publication US20050209345A1, “Lymphatic drug delivery system” (priority 2001, published 2005).

The conditions of series [1]: conscious rats, cited from earlier work.
For series [2] the following is noted: dog, in vivo, po.
Experimental: (§1) All surgical and experimental procedures were performed in accordance with the guidelines and approval of the local Institutional Animal Experimentation Ethics Committee. Studies were conducted in male greyhound dogs (28-35 kg), and their health status was verified by a veterinarian prior to the study. Prior to surgery, each dog was fed a small lipid meal to facilitate identification of the thoracic duct. […] Each dog received intravenous infusion of Lactated Ringer's solution (300 mL/h) during surgery, and a post-operative injection of antibiotic (cephazolin, 20 mg/kg) and analgesic (carprofen, 4 mg/kg).
(§2) The ventral abdomen was firstly clipped and prepared for aseptic surgery. A 5 cm long ventral midline laparotomy was performed to allow a loop of jejunum to be exteriorised. A 133 mm 16 gauge cannula was then inserted into a jejunal vein to the level of the portal vein. The cannula was stabilised in both the portal and jejunal veins with a ligature of 3/0 silk to the jejunal vein and a minimal volume extension tube, filled with heparinised saline, was then attached and externalised through a separate stab incision in the left flank and stabilised with sutures. The laparotomy wound was closed in anatomical layers with 3/0 polydioxinone sutures. The position of the cannula in the portal vein was confirmed by a portal venogram following a 10 mL injection of a contrast dye (Iohexol), and cannula patency was maintained by small volume flushing with heparinised saline (1 U/mL).
(§3) The left ventral neck area and cranial thorax was clipped and prepared for aseptic surgery. A curved incision was made over the left external jugular vein and the vein was then dissected from the surrounding tissues to the axillary vein. At the junction of the internal jugular and brachiocephalic veins, the thoracic duct ampulla was identified by its whitish appearance This was then ligated at the point of entrance into the brachiocephalic vein and all tributaries converging to the thoracic duct were ligated to ensure the return of lymph through the main lymphatic canal. […]
Series [3] in a line: Thoracic lymph duct and portal vein cannulated greyhound dog study: lymphatic transport of halofantrine and triglyceride, systemic availability. The note with it: fed dogs, IV 2 mg/kg, over 12 h, mean +/- sd, n = 3.
Experimental: as §1, §2, §3
For series [4] the following is noted: rats, oral, cited from earlier work.
For series [5] the following is noted: in soybean oil; cited from earlier work.
The conditions of series [6]: rats; cited from earlier work.
The conditions of series [7]: rats, soybean emulsion, 24 h post dosing; cited from earlier work.
The conditions of series [8]: in vivo; cited from earlier work.

Read-outs that look alike come from different tables or passages of the source.

Regarding `CCCCCCCCCCC(C)(C)C(=O)Nc1c(OC)cc(OC)cc1OC` [Cl-976], the “total amount transported in lymph as percent of dose, lipid-based emulsion compared with suspension” value in series [1] (over 14 h) is 7 times. Besides, the “absolute amount of drug transported lymphatically” value in series [1] is listed as below 1%. In the case of `CCCCN(CCCC)CCC(O)c1cc2c(Cl)cc(Cl)cc2c2cc(C(F)(F)F)ccc12` (centres unmarked) [Hf base], in series [2], the “Cum Hf transport in lymph (% dose)” value is listed as 1.3 +/− 0.7 % dose and the “Transport into syst circulation (% dose)” value was 30.2 +/− 18.7 % dose.

`CCCCN(CCCC)CCC(O)c1cc2c(Cl)cc(Cl)cc2c2cc(C(F)(F)F)ccc12` (centres unmarked) [Hf, halofantrine]: the “Cum Hf transport in lymph (% dose)” value in series [3] was 1.5 +/− 0.2 % dose. In the case of `CC(C)CCC[C@@H](C)[C@H]1CC[C@H]2[C@@H]3[C@@H](C)C[C@H]4N(C)C(=O)CC[C@]4(C)[C@H]3CC[C@]12C` [MK-386], the “rank order of total amount transported into the mesenteric lymph by formulation” value in series [4] (6 h post-dosing) is given as “aqueous suspension>mixed lipid/surfactant system>soybean oil”. For the same compound, the “levels of radioactivity in the lymph compared with the portal blood” value in series [4] (all three formulations) is reported as “up to 80 fold”. In addition, the lipid solubility in series [5] is above 80 mg/mL. For the compound `COC1(O[C@H]2CC[C@H]3[C@@H]4CC[C@H]5C[C@@H]6S[C@@H]6C[C@]5(C)[C@H]4CC[C@]23C)CCCC1` [mepitiostane], the “extent of lymphatic transport, polysorbate 80 micellar solution versus triglyceride lipid vehicle” value in series [6] is on record as “no significant differences”. Consider `Cc1ccc2oc(N[C@@H](CC3CCCCC3)c3ccccn3)nc2c1` [ontazolast], for which the “total amount of lymphatically transported ontazolast, increase versus aqueous based suspension” value in series [7] is recorded as around 50 fold. For `CCCCCCCCCCCCCCCC(=O)OC/C=C(C)/C=C/C=C(C)/C=C/C1=C(C)CCCC1(C)C` [retinyl palmitate], in series [8], the “lymphatic transport, aqueous polysorbate 80 micellar solution compared with lipid solution” value is given as “two-fold increase”.
